From patent publication US20200270216A1, “COMPOSITIONS AND METHODS FOR INHIBITING N-SMASE2” (The Regents of the University of California, priority 2017, published 2020)

Legend:
Assay type in all cases: cell-based
[1] = test system: P2-seeded tau biosensor cells; assay: EV purification and characterization (immunoblot of exosome markers, nanoparticle tracking analysis); conditions: 50 μM, 48 hours, nanoparticle tracking analysis
Excerpt: Extracellular vesicles (EVs) were purified from the cell culture medium using Exo-Quick-TC exosome purification kit (SBI, EXOTC10A-1) according to the manufacturing instructions. Immunoblot analysis of the EV fractions was done by 10-20% Tris-Glycine gel in non-reduced conditions, transferred to PVDF membrane and probed with antibodies against CD63 (ThermoFisher, 10628D), followed by HRP-conjugated secondary antibodies. Chemiluminescent signals were obtained with Super Signal West Femto substrate (Thermo Scientific Pierce 34,095) and detected using a BioSpectrum 600 imaging system and quantified using VisionWorks Version 6.6A software (UVP; Upland, Calif.). […] Inhibition of nSMase2 activity in cell extracts of confluent tau biosensors was confirmed by nSMase2 activity assay analogous to the one described in Example 2.
Our analysis confirmed that nSMase2 inhibitors suppress release of EVs from P2-seeded tau biosensor cells. […] EV samples purified from the same number of donor cells were analyzed per each group. Purified EVs were imaged by transmission electron microscopy (FIG. 5C). Size distribution of particles in the samples were assessed by nanoparticle tracking analysis (FIG. 5D). WB analysis for exosome markers also confirmed decrease in the exosome-specific marker expression (FIG. 5E).
Donor cells were grown in medium with exosome-depleted FBS (ThermoFisher, A2720803) for 48 hours with or without compounds, cell culture medium was collected and EVs purified using ExoQuick-TC kit (SBI biosciences). For quality control, small amounts of purified EVs were fixed on a copper mesh in glutaraldehyde/paraformaldehyde solution, stained with 2% uranyl acetate solution and imaged on a JEOL 100CX electron microscope at 29,000 times magnification. […] Chemiluminescent signals were obtained with Super Signal West Femto substrate (Thermo Scientific Pierce 34095) and detected using a BioSpectrum 600 imaging system and quantified using VisionWorks Version 6.6A software (UVP; Upland, Calif.).

[2] = test system: HEK293T Tau RD P301S FRET biosensor cells; assay: D+R functional assay: tau seed transfer from P2-seeded donor cells to DiD-labeled recipient cells; conditions: D+R model, flow cytometry (FIG. 4C)
Method: The compounds disclosed herein were further evaluated in the functional assays (“D+R approach”). The assays were based on the use of two cell populations—donor cells (D) and recipient cells (R). Recipients express a specific signal upon accumulation of protein aggregates (for example, FRET signal). The D+R approach can be divided into four steps (FIG. 4A).
In step 1, donor and recipient cells were plated in separation and protein aggregation is induced in the donor cells by using tissue-derived or synthetic proteopathic seeds (“seeding”) or by chemical and/or genetic methods. In step 2, either donor cells or recipient cells were labeled with a lipophilic dye (or by other cell labeling technology) in order to be able to distinguish between donor and recipients cells after trypsinization and re-plating of the donor and recipient cells together in step 3 (R+D). Alternatively, donor and recipient cells were physically divided by a permeable support (for example, Transwell). In any scenario, the cells were connected through the media and they grow for 24-60 hours with or without addition of pre-selected compounds. Efficiency of proteopathic seed transmission from donor cells to recipient cells can be analyzed using microscopy, flow cytometry, or imaging flow cytometry. […] Treatment of the tau biosensor cells with tau seeds lead to RD aggregation, as a result, CFP and YFP molecules come into close proximity and a FRET signal can be generated in the CFP/YFP pair upon illumination. The far-red fluorescent, lipophilic carbocyanine dye, DiD, was used for labeling recipient cells. This dye allowed for distinguishing between the DiD-negative donor and the DiD positive recipient cells without interference with the CFP/YFP FRET signal. The representative images of DiD-negative FRETpositive donor cell seeded with P2-derived tau seeds), DiD-positive FRET-negative recipient cell (DiD-R), and DiD positive FRET-positive recipient cell, which were growing in the presence of P2-D (DiD-R/R+D) are presented at the FIG. 4B. […]

[3] = test system: HEK293T Tau RD P301S FRET biosensor cells; assay: EV-mediated tau transfer assay
Method: For EV (extracellular vesicles)-mediated tau transfer assay, donor cells, transduced with AD-brain derived synaptosomal extracts (P2) or synthetic K18 seeds, were cultured for 48 hours in exosome-free medium with or without indicated concentration of tested compounds or DMSO for control, then medium was collected and EVs were purified using Exo-Quick-TC exosome purification kit (SBI, EXOTC10A-1) according to the manufacturing instructions. Naive recipient cells were plated at density 30,000 cells per well (96-well plates), grown for 12 hour in regular medium and then medium was exchanged to exosome-depleted medium, contained exosomes purified from donor cells (each well of recipients received amount of exosomes purified from one well of donor cells). Recipient cells were cultured in the presence of donor cell exosomes for 60 hrs. EV-mediated transfer assay scheme is presented at the FIG. 5A (right).
HEK293T Tau RD P301S FRET biosensor cells were growing in the Dulbecco's Modified Eagle's medium (DMEM) with higher glucose, 10% FBS, and 1% Penicillin-streptomycin at 37° C./5% CO2. Cells were plated in 10-sm dishes (3 million cells per dish in the regular medium) and grown for 12 hrs. Cells assigned to be donors were transduced with pulled synaptosomal (P2) extracts from AD cases using lipofectamine 2000, according to the published literature with minor modifications. We used 35 μg of pulled AD or control (NL) material per one 10-sm dish (TableS1). Defrosted P2 extracts were sonicated in water bath sonicator for 10 minutes, and diluted with Opti-MEM serum reduced medium to the final volume 200 μL per 10-sm dish. In a separate tube lipofectamine 2000 were combined with Opti-MEM medium, based on 25 μl of lipofectamine and 175 μL OptiMEM medium per each 10-sm dish, and incubated for 10 minutes at room temperature (RT). Each P2 or NL extract mix (200 μl) and prepared lipofectamine 2000 mix (200 μl) were combined and incubated for 20 min at RT. Each 10-sm dish with cell received 400 μl of the final liposomes in the total volume of medium 5 ml per dish. Cultures treated with equal amount of empty liposomes were used as an additional control group. Cells were incubated with liposomes for 20 hrs.
For “D+R” assay recipient cells were labeled with 1,1′-Dioctadecyl-3,3,3′,3′-tetramethylindodicarbocyanine (DiD) according to manufacturer's protocol (ThermoFisher V22887) on day 2. On day 3, donor cells were trypsinized (0.05% Trypsin/EDTA), washed with fresh exosome-free medium contained 10% of exosome-depleted FBS (ThermoFisher, A2720803). DiD-labeled recipient cells were also trypsinized and washed in exosome-free medium. […] FRET signal was detected using LSRII flow cytometer (BD biosciences). […]

`O=C(/C=C/c1ccc(/C=C/C(=O)Nc2ccc(C3=NCCN3)cc2)cc1)Nc1ccc(C2=NCCN2)cc1` [GW4869] was tested, and the “release of EVs from P2-seeded donor cells” value [1] was “released less EVs”, the “tau seed transmission from donor cells to recipient cells” value [2] was “restrained tau seed transmission from the donor cells to the recipient cells in a dose-dependent manner” and the “EV-mediated transfer of tau to recipient cells” value ([3]; P2-seeded donor cells treated at 50 μM, 48 hours) was “decrease”. For the same compound, the “reduction of EV-mediated transfer of tau seeds to naive recipient cells” value ([3]; inhibitor treatment of donor cells) was 2.6 times.
